As usually defined, the IC50 is the point on the concentration scale where inhibition reaches its midpoint. Low readings indicate greater potency in that assay, high ones weaker potency in that assay.

The assay addresses T1, Angiotensin II Receptor (Bos taurus, UniProt P25104).
T1 construct: The brownish tissue forming the adrenal cortex is scraped off and finely minced with scissors before homogenization; from tissue; host or cells: beef adrenal cortex, microsomal membranes (100,000×g pellet)
T1 sequence (P25104 1-359): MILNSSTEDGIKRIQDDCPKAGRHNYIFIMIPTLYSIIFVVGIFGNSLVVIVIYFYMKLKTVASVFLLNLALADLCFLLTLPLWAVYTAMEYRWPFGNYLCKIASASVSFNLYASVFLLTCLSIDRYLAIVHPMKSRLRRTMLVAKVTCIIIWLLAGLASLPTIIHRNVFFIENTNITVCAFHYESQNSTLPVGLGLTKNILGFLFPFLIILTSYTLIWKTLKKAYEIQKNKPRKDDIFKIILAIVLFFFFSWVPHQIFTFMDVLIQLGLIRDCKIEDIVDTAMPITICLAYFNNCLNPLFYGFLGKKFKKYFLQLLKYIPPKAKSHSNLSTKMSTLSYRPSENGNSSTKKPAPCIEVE
As to the kind of experiment: Angiotensin II Receptor Binding: displacement of [^125 I](Sar^1,Ile^8)AngII from beef adrenal cortex membranes. More on the design: species or system beef (bovine). Conditions: [^125 I](Sar^1,Ile^8)AngII, beef adrenal membranes, 60 min, room temperature. The source says: Beef adrenals are obtained from a local slaughter house (Maxwell-Cohen). [^125 I](Sar^1,Ile^8)AngII, S.A. 2200 Ci/mmole, is purchased from Dupont (NEN®, Boston, Mass.). All unlabeled AngII analogs, Dimethylsulfoxide (DMSO), nucleotides, bovine serum albumin (BSA) are purchased from Sigma Chemical Co., St. Louis, Mo. U.S.A.
Approximately sixteen (16) to twenty (20) beef adrenal glands are processed as follows: fresh adrenal glands received on crushed ice are cleaned of fatty tissues and the tough membranes encapsulating the glands are removed and discarded. The brownish tissue forming the adrenal cortex is scraped off and finely minced with scissors before homogenization. Care is taken to avoid contamination with medullary tissue during dissection. The scraped cortices are suspended in twenty volumes of an ice-cold buffer medium consisting of 10 mM Tris.HCl (pH 7.4 at 22° C.) and containing 1.0 mM EDTA and 0.2M sucrose. Unless otherwise indicated, all subsequent operations are done at 4° C. […] The homogenate is centrifuged first at low speed (3,000×g) for 10 min. […] This P2 pellet is discarded and the liquid phase is carefully decanted off in clean centrifuge tubes and recentrifuged at high speed (100,000×g) for 60 min. The translucent final pellet is harvested and combined in a small volume (20-50.0 ml) of 50.0 mM Tris.HCl buffer, pH 7.2. […] The pelleted membrane is reconstituted in 50.0 mM Tris.HCl buffer containing 0.1 mM of phenylmethylsulfonyl fluoride (PMSF) to give approximately a protein concentration of 2.5 mg per ml of tissue suspension. The membrane preparation is finally aliquoted in 1.0 ml volumes and stored at -70° C. until use in the binding assays. […]
The wells are left undisturbed for 60 min. at room temperature. […] The filters are removed from the filter grid and counted in a Parkard® Cobra Gamma Counter for 1 min. […] The binding data are analyzed by the non-linear interactive "LUNDON-1" program (LUNDON SOFTWARE Inc., Cleveland, Ohio U.S.A.).

Consider `CCCCc1nc2ccc(C3=NN[C@H]4C(=O)N(C)C(=O)[C@@H]34)cc2c(=O)n1Cc1ccc(-c2ccccc2-c2nnn[nH]2)cc1` (relative stereo) [Example 7], for which the IC50 worked out at 180 nM. Turning to `CCCCc1nc2ccc([C@@]3(C)NN[C@@H]4C(=O)N(C)C(=O)[C@@H]43)cc2c(=O)n1Cc1ccc(-c2ccccc2-c2nnn[nH]2)cc1` (relative stereo) [Example 10, (3-alpha,3aalpha,6aalpha)-3-[2-butyl-3,4-dihydro-4-oxo-3-[[2'-(1H-tetrazol-5-yl)-[1,1'-biphenyl]-4-yl]methyl]-6-quinazolinyl]-2,3,3a,6a-tetrahydro-3,5-dimethyl-pyrrolo[3,4-c]pyrazole-4,6(1H,5H)-dione], the IC50 came out at 880 nM.

The values above are taken from US5281603A, “Angiotensin II receptor blocking 2,3,6 substituted quinazolinones” (American Cyanamid Company, priority 1993, dated 1994).
